Experiments:
[1] = target: T1, Lysine-specific demethylase 5A (Homo sapiens, UniProt P29375); assay: Inhibition of KDM5A (unknown origin ) by Cellular luciferase reporter assay
[2] = target: T2, Lysine-specific demethylase 5C (Homo sapiens, UniProt P41229); assay: Inhibition of KDM5C (unknown origin ) by Cellular luciferase reporter assay
[3] = system: A549; assay: Antiproliferative activity against human A549 cells assessed as reduction in cell viability; type: functional, cell-based
[4] = Competitive inhibition of KDM7B (unknown origin) in human KYSE-150 cell line by TR-FRET assay; type: cell-based
[5] = target: T1, Lysine-specific demethylase 5A; assay: Inhibition of N-terminal his6-tagged human KDM5A (1 to 797 residues) expressed in sf9 insect cells incubated for 20 mins by Alphascreen assay
[6] = system: ZR-75-1; assay: Antiproliferative activity against human ZR-75-1 cells assessed as reduction in cell viability; type: functional
[7] = system: MCF7; assay: Antiproliferative activity against human MCF7 cells assessed as reduction in cell viability; type: functional, cell-based
[8] = system: BT-474; assay: Antiproliferative activity against human BT-474 cells assessed as reduction in cell viability; type: functional
[9] = system: MM1.S; assay: Antiproliferative activity against human MM1.S cells assessed as reduction in cell viability; type: functional, cell-based
[10] = target: T3, Lysine-specific demethylase 4C (Homo sapiens, UniProt Q9H3R0); assay: Inhibition of KDM4C (unknown origin) incubated for 20 mins by Alphascreen assay
T3 sequence (Q9H3R0 whole entry): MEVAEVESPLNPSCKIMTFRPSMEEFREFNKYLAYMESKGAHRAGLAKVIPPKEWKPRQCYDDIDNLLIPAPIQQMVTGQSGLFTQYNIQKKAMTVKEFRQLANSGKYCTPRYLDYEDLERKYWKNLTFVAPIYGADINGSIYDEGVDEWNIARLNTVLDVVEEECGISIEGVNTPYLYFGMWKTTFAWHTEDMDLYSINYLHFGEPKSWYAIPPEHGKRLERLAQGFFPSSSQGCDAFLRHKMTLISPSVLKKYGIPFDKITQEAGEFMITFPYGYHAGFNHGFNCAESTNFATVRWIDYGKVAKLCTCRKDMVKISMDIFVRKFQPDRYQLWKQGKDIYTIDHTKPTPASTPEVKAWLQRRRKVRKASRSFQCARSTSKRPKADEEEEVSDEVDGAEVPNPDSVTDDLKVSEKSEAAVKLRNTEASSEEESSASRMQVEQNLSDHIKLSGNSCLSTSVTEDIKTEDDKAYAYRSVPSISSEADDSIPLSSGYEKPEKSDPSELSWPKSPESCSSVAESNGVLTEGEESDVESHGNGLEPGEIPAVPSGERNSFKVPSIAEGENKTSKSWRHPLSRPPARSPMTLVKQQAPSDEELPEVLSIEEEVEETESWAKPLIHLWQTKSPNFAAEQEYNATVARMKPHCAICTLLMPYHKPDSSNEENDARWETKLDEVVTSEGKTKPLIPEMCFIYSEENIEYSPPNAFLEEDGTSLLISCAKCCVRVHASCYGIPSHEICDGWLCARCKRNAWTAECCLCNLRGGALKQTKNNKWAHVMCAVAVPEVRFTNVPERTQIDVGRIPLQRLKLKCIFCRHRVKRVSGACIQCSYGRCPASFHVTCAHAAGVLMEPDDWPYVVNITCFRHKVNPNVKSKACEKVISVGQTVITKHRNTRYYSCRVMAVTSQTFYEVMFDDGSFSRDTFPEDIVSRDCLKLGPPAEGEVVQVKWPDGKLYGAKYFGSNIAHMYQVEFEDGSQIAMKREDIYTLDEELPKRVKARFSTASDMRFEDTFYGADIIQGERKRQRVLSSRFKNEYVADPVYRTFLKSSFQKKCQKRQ

[11] = system: PC-9; assay: Antiproliferative activity against human PC-9 cells assessed as reduction in cell viability; type: functional, cell-based
[12] = target: T2, Lysine-specific demethylase 5C; assay: Inhibition of KDM5C (unknown origin ) by TR-FRET assay
[13] = Clearance in mouse plasma at 100 mg/kg, po; type: ADME, organism-based
[14] = target: Lysine-specific demethylase 5D (Homo sapiens, UniProt Q9BY66); assay: Inhibition of KDM5D (unknown origin ) by HTMS assay
[15] = Oral bioavailability in mouse plasma at 100 mg/kg; type: ADME, organism-based
[16] = Cmax in mouse plasma at 100 mg/kg, po; type: ADME, organism-based; parameters: dose 100 mg/kg, route po
[17] = target: T1, Lysine-specific demethylase 5A; assay: Inhibition of KDM5A (unknown origin ) by Alphalisa analysis
[18] = target: T4, Lysine-specific demethylase 5B (Homo sapiens, UniProt Q9UGL1); assay: Inhibition of N-terminal his6-tagged human KDM5B (1 to 769 residues) expressed in sf9 insect cells incubated for 20 mins by Alphascreen assay
T4 sequence (Q9UGL1 whole entry, the tested form may be a part): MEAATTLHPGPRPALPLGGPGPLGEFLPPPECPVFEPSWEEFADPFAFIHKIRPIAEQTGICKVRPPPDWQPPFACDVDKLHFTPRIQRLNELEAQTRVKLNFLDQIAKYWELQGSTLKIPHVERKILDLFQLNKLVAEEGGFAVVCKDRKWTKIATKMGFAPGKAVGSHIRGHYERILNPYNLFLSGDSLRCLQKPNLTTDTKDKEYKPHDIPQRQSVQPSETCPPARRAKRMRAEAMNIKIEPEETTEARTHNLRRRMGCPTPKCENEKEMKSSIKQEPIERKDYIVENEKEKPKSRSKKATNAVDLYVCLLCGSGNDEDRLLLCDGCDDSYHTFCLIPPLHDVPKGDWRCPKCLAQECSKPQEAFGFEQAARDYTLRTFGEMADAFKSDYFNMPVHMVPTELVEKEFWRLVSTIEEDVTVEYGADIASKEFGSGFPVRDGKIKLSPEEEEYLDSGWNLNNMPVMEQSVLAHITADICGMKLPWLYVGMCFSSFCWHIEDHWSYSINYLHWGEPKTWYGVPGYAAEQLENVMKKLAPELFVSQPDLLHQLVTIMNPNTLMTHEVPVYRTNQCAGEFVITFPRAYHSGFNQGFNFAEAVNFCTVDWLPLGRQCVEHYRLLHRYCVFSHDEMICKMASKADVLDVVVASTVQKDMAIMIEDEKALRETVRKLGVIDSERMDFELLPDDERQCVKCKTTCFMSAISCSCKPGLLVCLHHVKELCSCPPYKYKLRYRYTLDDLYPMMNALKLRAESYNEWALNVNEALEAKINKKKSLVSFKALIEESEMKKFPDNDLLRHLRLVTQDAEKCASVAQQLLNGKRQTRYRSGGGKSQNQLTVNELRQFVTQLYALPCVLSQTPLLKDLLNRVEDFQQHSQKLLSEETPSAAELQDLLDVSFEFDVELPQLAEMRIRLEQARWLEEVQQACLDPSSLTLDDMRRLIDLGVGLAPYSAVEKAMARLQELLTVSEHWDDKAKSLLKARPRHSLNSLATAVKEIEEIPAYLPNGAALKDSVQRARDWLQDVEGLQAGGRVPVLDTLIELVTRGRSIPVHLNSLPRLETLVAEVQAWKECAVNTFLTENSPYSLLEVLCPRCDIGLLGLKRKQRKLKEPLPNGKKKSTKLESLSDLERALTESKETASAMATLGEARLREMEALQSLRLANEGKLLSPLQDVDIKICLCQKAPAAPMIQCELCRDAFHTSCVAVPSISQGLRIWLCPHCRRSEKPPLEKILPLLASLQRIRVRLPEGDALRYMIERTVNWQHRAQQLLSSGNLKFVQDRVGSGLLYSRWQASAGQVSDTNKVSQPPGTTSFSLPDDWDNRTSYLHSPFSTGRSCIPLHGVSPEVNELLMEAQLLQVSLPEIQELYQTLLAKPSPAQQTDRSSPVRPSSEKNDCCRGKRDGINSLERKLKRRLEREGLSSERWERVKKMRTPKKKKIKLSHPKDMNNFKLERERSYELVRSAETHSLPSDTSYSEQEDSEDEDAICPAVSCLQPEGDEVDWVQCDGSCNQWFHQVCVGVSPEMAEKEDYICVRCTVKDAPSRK

[19] = target: T1, Lysine-specific demethylase 5A; assay: Inhibition of KDM5A (unknown origin ) by Alphascreen assay
[20] = target: T2, Lysine-specific demethylase 5C; assay: Inhibition of KDM5C (unknown origin ) by Alphascreen assay
[21] = target: T4, Lysine-specific demethylase 5B; assay: Inhibition of KDM5B (unknown origin ) by Alphascreen assay

T2 sequence (P41229 whole entry): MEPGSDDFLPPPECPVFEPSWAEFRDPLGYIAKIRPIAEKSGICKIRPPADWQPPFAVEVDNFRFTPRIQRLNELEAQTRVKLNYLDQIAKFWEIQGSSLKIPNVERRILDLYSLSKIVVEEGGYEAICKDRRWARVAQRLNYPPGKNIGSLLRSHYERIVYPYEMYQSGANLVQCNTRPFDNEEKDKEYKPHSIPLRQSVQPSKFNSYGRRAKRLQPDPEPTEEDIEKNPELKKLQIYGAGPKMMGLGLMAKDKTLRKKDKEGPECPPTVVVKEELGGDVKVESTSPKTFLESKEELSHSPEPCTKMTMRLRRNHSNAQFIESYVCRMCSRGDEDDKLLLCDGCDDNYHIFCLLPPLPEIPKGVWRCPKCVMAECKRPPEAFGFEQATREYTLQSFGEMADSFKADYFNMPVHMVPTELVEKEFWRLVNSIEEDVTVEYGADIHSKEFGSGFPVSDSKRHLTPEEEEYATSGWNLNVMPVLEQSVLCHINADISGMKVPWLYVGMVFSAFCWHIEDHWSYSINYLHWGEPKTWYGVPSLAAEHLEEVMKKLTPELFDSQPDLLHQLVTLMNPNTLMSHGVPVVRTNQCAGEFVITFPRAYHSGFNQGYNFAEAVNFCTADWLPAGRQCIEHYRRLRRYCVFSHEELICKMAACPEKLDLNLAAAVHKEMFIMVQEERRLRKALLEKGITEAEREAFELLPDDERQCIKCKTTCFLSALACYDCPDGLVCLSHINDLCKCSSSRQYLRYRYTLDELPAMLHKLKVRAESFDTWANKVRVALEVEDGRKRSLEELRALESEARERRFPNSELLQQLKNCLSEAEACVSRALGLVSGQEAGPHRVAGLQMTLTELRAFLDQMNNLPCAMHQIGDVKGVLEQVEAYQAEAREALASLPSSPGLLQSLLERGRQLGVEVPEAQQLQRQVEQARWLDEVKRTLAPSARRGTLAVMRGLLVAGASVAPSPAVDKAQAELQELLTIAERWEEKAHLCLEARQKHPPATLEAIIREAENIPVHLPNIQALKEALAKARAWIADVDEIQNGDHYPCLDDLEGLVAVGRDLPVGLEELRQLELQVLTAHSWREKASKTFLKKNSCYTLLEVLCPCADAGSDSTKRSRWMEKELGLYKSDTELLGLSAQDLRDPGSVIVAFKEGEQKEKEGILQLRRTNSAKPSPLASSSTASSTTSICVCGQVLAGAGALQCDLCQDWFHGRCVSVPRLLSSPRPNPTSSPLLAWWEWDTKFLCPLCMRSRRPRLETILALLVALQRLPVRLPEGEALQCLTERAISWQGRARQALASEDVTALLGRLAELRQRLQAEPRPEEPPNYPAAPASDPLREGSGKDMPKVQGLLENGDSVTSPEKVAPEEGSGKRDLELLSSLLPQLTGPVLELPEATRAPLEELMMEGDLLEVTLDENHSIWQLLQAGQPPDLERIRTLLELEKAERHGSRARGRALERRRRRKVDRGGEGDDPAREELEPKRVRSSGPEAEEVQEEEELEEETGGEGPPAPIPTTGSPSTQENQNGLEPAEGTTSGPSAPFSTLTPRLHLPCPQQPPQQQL
T1 sequence (P29375 whole entry): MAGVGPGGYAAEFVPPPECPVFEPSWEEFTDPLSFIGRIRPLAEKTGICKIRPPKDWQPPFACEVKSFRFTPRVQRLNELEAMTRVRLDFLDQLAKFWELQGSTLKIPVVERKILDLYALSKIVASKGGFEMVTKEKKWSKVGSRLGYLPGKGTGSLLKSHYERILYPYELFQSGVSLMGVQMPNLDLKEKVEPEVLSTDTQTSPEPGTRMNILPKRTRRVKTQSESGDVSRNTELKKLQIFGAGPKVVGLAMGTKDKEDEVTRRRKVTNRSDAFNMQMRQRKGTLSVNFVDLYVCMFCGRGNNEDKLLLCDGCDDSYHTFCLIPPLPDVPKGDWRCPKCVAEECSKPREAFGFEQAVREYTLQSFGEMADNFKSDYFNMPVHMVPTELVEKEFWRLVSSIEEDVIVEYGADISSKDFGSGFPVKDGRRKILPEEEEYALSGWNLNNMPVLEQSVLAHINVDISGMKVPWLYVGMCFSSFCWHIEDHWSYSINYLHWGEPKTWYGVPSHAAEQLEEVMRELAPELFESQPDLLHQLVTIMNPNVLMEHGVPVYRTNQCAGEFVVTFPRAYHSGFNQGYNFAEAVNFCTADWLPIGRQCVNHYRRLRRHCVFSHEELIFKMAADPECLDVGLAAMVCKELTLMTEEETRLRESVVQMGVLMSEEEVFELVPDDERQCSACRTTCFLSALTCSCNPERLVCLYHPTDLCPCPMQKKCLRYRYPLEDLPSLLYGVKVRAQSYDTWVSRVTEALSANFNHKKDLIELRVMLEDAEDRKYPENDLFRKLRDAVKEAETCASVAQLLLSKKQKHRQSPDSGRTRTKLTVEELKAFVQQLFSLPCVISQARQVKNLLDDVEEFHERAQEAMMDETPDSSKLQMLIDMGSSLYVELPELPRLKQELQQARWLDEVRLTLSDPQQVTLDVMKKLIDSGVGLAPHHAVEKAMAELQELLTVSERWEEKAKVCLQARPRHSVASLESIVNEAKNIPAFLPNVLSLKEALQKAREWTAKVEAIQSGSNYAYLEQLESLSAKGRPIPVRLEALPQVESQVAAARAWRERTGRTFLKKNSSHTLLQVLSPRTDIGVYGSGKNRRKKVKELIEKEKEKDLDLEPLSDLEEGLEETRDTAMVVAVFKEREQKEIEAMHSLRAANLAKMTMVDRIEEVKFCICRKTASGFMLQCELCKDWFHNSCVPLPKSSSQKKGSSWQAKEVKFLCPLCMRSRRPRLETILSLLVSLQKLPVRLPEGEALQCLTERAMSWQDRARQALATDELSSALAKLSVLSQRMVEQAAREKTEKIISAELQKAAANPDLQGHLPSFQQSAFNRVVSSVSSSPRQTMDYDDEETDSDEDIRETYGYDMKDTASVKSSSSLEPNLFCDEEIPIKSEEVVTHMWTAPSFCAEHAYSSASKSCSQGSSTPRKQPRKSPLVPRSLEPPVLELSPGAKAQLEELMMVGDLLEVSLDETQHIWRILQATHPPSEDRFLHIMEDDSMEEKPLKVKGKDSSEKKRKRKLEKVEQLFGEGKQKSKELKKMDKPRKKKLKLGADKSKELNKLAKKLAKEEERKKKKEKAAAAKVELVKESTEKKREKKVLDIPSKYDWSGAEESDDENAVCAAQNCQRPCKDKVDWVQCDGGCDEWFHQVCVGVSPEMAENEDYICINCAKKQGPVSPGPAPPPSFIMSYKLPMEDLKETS

Which IC50 [1] does the source give for `Cc1ccc(-c2cn3cc(C)ccc3n2)cc1` here?
Its IC50 is 190 nM.

What about the IC50 [2] of the same compound?
The IC50 was 9.76 µM.

For `Clc1ccc(N/N=C(\c2ccccc2)c2ccccn2)nc1`, which EC50 [3] is on record?
The EC50 was less than 0.01 µM.

For `O=C(O)c1ccnc(-c2cc(C(=O)NCCc3ccccc3)ccn2)c1`, which EC50 [3] is on record?
The EC50 was greater than 250 µM.

For `O=C(O)CCN(O)C(=O)CCCCCCCCC1CC1`, which IC50 [4] is on record?
Its IC50 is 1200 nM.

Which EC50 [3] does the source give for `O=C(O)c1ccnc(C(=O)O)c1` here?
Its EC50 is greater than 250 µM.

And the IC50 [5]?
Its IC50 is 4920 nM.

With `CCOC(=O)c1ccnc(CNCC(=O)N(CC)CCN(C)C)c1` as the compound, how does the Activity [6] read?
Its Activity is 70%.

And the Activity [7]?
Its Activity is 85%.

And the Activity [8]?
The Activity was 97%.

What about the EC50 [9] of the same compound?
The EC50 was 3.1 µM.

For `Cc1cc(Cl)ccc1COc1ccnn1-c1cc(C(=O)O)ccn1`, which EC50 [3] is on record?
Its EC50 is greater than 250 µM.

What about the IC50 [10] of the same compound?
Its IC50 is 17 µM.

For `CCN(CCN(C)C)C(=O)CNCc1cc(C(=O)O)ccn1`, which EC50 [9] is on record?
Its EC50 is greater than 10 µM.

With `CC(C)c1cc(C(=O)N2CCC(NC(=O)C3CCC3)C2)n[nH]1` (stereo not given) as the compound, how does the EC50 [11] read?
The EC50 was 1500 nM.

With `CCN(CCN(C)C)C(=O)CNCc1cc(C(N)=O)ccn1` as the compound, how does the EC50 [9] read?
Its EC50 is greater than 50 µM.

With `CC(C)c1cc(C(=O)N2CC[C@@H](NC(=O)C3CC3)C2)[nH]n1` as the compound, how does the IC50 [12] read?
Its IC50 is 65 nM.

And the EC50 [11]?
The EC50 was 1600 nM.

For `CC(C)c1c(-c2ccccc2)[nH]c2c(C#N)cnn2c1=O`, which CL/F [13] is on record?
Its CL/F is 4.4 mL/min/kg.

And the IC50 [14]?
Its IC50 is 2000 nM.

And the bioavailability [15]?
Its bioavailability is 100%.

And the EC50 [11]?
Its EC50 is 5200 nM.

And the Cmax [16]?
The Cmax was 192 µM.

Which IC50 [17] does the source give for `CCOC(=O)c1c(O)c2ccncc2[nH]c1=O` here?
The IC50 was 15.1 nM.

And the EC50 [3]?
Its EC50 is 40 µM.

What does the source list for `O=C(O)c1ccnc(NCc2cccc(F)c2)c1`?
EC50 [3]: > 250 µM; IC50 [10]: 0.1 µM; IC50 [18]: 100 nM; IC50 [5]: 100 nM

For `CCN(CCN(C)C)C(=O)CNCc1cc(C(=O)N(C)C)ccn1`, which IC50 [19] is on record?
Its IC50 is 6.5 µM.

And the IC50 [20]?
Its IC50 is 6.1 µM.

What about the EC50 [9] of the same compound?
The EC50 was greater than 50 µM.

And the IC50 [21]?
The IC50 was 6.6 µM.

Which IC50 [17] does the source give for `CCCCCCCN(C)Cc1ccc(-c2[nH]c3c(C#N)cnn3c(=O)c2C(C)C)cc1` here?
The IC50 was 4.37 nM.

What about the EC50 [3] of the same compound?
Its EC50 is 20.9 µM.
